86 compounds from PubChem BioAssay AID687029 (Broad Institute, 2013) can be followed below.

For orientation: AC50 means the midpoint of the concentration-response curve, whichever way the signal moves.

Molecules are shown by their SMILES.

The subject of the assay is RMG-1 viability, CellTiterGlo ATP luminescence, 96 h. Put plainly: RMG-1 ovarian cancer cell viability loss – cherry-pick, dose response (AID 687029).
As to `Cc1nc2sc(C(c3ccco3)N3CCN(C(c4ccccc4)c4ccccc4)CC3)c(O)n2n1` (stereo unspecified), the AC50 is less than 260 nM.
As to `CCc1cc(-c2n[nH]c(C)c2-c2nc3ccccc3n2C)c(O)cc1O`, the AC50 was less than 260 nM.
As for `COc1ccc2c(COC(=O)CNC(=O)C34CC5CC(CC(C5)C3)C4)cc(=O)oc2c1`, the figure is less than 260 nM; as for `C[C@@H]1CCCCO[C@@H](CN(C)C(=O)Nc2cccc3ccccc23)[C@H](C)CN([C@H](C)CO)C(=O)c2cc(NS(=O)(=O)c3ccccc3)ccc2O1`, less than 260 nM.
As for `CCCCN=C[C@]12CCC(O)CC1(O)CCC1[C@@H]2CC[C@]2(C)[C@H](C3C=CC(=O)O3)CCC12O` (stereo partly specified), the AC50 is less than 260 nM.
As for `O=c1[nH]c2ccccc2n1C1CCN(C(c2cccs2)c2nnnn2-c2ccc3c(c2)OCCO3)CC1` (stereo unspecified), the figure is less than 260 nM; as for `C=C(C)c1cccc(C(C)(C)NC(=O)N2CCN(c3ccccc3OC)CC2)c1`, less than 260 nM.
As for `Cc1cc(Nc2ccc3c(c2)OCCO3)c2ccccc2n1`, the figure is less than 260 nM.
As for `C#CCN(C[C@@H]1[C@@H](OC(=O)NCC2CCCCC2)[C@@H](OC(=O)NCC2CCCCC2)Cn2c(=O)ccc(=O)n21)S(=O)(=O)c1ccc(C)cc1`, the figure is less than 260 nM; as for `Cc1cnc(NC(=O)c2ccc3c(c2)OCCO3)s1`, less than 260 nM.
As for `O=C(NC1CCCCC1)C(c1cccnc1)N(C(=O)CCl)c1ccc(F)cc1` (stereo unspecified), the AC50 was 9950 nM.
The same measure for `O=C(CCC(=O)c1ccccc1)NCCc1c[nH]c2ccccc12`: less than 260 nM; for `COc1cccc(CC(=O)Nc2nc3c(s2)C(=O)CC(C)(C)C3)c1`: less than 260 nM; for `CCCn1c(C)cc(C(=O)CN2C(=O)c3ccccc3S2(=O)=O)c1C`: less than 260 nM.
As for `CN(C(=O)OC(C)(C)C)c1ccc(-c2nc3ccccc3s2)cc1`, the figure is less than 260 nM.
For `Cn1c(CCN2CCCC2)nc2cc(NS(=O)(=O)c3ccccc3)ccc21`, the concentration at half-maximal activity (AC50) is less than 260 nM.
Consider `CCOC(=O)c1c(C)[nH]c2c1-c1ccccc1C(=O)C2=O`, for which the AC50 was less than 260 nM.
The same measure for `Cc1nnc(N/N=C/c2cc(C)n(-c3ccc(F)cc3)c2C)n1N`: 8360 nM; for `Cc1cc(C)c2c(N)c(C(=O)Nc3ncc(C)s3)sc2n1`: 1010 nM; for `COc1cc(OC)cc(C(=O)NCC(=O)OCC(=O)c2cc(C)n(Cc3ccco3)c2C)c1`: less than 260 nM.
The same measure for `COc1ccc(-c2nc3c(c(SCC(=O)Nc4cccc(O)c4)n2)Cc2c(CO)cnc(C)c2O3)cc1`: 10500 nM.
The same measure for `CSC(=Nc1ccccc1)N=C(SCc1ccccc1)N(C)C`: less than 260 nM.
Take `O=C(NCc1ccco1)C1CCCN(S(=O)(=O)c2ccc(Br)cc2)C1` (stereo unspecified): the AC50 was less than 260 nM.
As for `CC1CN(CC(O)COC(c2ccccc2)c2ccccc2)CC(C)O1` (stereo unspecified), the figure is less than 260 nM; as for `CN1c2ccccc2N(C)C1(C)c1ccccc1`, less than 260 nM; as for `CC(=O)[C@@]1(O)Cc2c(O)c3c(c(O)c2[C@H](O[C@H]2C[C@H](N)[C@H](O)[C@H](C)O2)C1)C(=O)c1ccccc1C3=O`, 9480 nM.
As for `COc1ccc(C(=O)c2ccc(Cl)c([N+](=O)[O-])c2)cc1`, the figure is less than 260 nM; as for `CCOC(=O)c1c(-c2ccc(F)cc2)csc1NC(=O)CN1C(=O)NC2(CCCCC2C)C1=O` (stereo unspecified), 12400 nM; as for `COc1ccc(CCNc2nnc(Sc3nnnn3-c3ccccc3)s2)cc1OC`, 13000 nM.
With `CCCNC(=O)Nc1ccc2c(c1)OC[C@H](C)N(Cc1ccc(-c3ccccn3)cc1)C[C@@H](C)[C@@H](OC)CN(C)C2=O`, the half-maximal activity concentration (AC50) was less than 260 nM.
The same measure for `COc1ccc(NC(=O)c2c(Nc3ccccc3)sc(C(=O)c3ccc(F)cc3)c2N)cc1`: less than 1000 nM.
As for `C=C(C)c1nc(Oc2ccccc2)nc(Oc2ccccc2)n1`, the concentration at half-maximal activity (AC50) is less than 260 nM.
As for `CN1c2ccc(-c3cccc(F)c3)cc2[C@@H]2[C@@H](CCN2C(=O)Cc2ccccc2)[C@@H]1CO`, the figure is 479 nM; as for `Cc1nc(Nc2nc(CSc3nc4ccccc4[nH]3)cc(=O)[nH]2)nc2ccccc12`, less than 260 nM.
For `O=C(CSc1ncccc1-c1nc2ccccc2[nH]1)N1CCc2ccccc21`, the half-maximal activity concentration (AC50) was less than 260 nM.
Turning to `S=c1sc2c(Cl)ncnc2n1-c1ccccc1`, the AC50 was less than 260 nM.
The same measure for `COc1ccc(S(=O)(=O)Nc2ccc3c(c2)C(=O)N([C@@H](C)CO)C[C@H](C)[C@@H](CN(C)Cc2ccc(C(F)(F)F)cc2)OCCCC[C@H](C)O3)cc1`: 372 nM; for `C[C@@H]1CCCCO[C@@H](CN(C)C(=O)Nc2cccc3ccccc23)[C@H](C)CN([C@H](C)CO)C(=O)c2cc(NS(=O)(=O)c3ccc(F)cc3)ccc2O1`: less than 260 nM.
The same measure for `C=C(C(=O)c1ccccc1)C(C(=C)C(=O)c1ccccc1)c1ccc(OC)cc1`: less than 260 nM; for `C[C@@H]1CCCCO[C@@H](CN(C)S(=O)(=O)c2ccc(Cl)cc2)[C@H](C)CN([C@H](C)CO)C(=O)c2cc(NS(=O)(=O)c3ccc(F)cc3)ccc2O1`: 1720 nM; for `COc1ccccc1C(=O)Nc1nc2ccccc2[nH]1`: 12300 nM.
As for `C[C@@H]1CN([C@H](C)CO)S(=O)(=O)c2ccc(C#CC3CCCC3)cc2O[C@@H]1CN(C)C(=O)Cc1ccncc1`, the figure is less than 260 nM; as for `C[C@@H]1CCCCO[C@H](CN(C)C(=O)C2CCCCC2)[C@@H](C)CN([C@@H](C)CO)C(=O)c2cc(NC(=O)Nc3ccc(F)cc3)ccc2O1`, less than 260 nM; as for `CCSc1cc(N2CCOCC2)nc(-c2ccc(Cl)cc2)n1`, less than 260 nM.
Regarding `C[C@H](CO)N1C[C@H](C)[C@H](CN(C)Cc2ccc(C(F)(F)F)cc2)OCCCC[C@H](C)Oc2ccc(NS(=O)(=O)c3ccccc3)cc2C1=O`, the half-maximal activity concentration (AC50) is 927 nM.
The same measure for `O=C(Nc1cccc(Cl)c1)Nc1nnc(-c2ccncc2)s1`: less than 260 nM; for `Cc1ccc(Cl)cc1N1CCN(C(=O)c2noc(C)c2[N+](=O)[O-])CC1`: less than 260 nM; for `CCC(=O)NC(c1ccc(C)cc1)c1ccc2cccnc2c1O` (stereo unspecified): less than 260 nM.
Consider `COc1cc2nc(C3CCC3)nc(N3CCN(c4ccccc4OC)CC3)c2cc1OC`, for which the AC50 is less than 260 nM.
As for `O=C(NCc1cc(C(F)(F)F)ccc1Cl)c1cccc2c1C(=O)c1ccc(N3CCC(N4CCCCC4)CC3)cc1S2(=O)=O`, the figure is less than 260 nM.
As for `CC(C)CCCCCCCCCCCCC(=O)NCC(=O)NC1C(C)OC(Nc2ncnc3nc[nH]c23)C(O)C1O` (stereo unspecified), the figure is 275 nM; as for `Cc1cccc(N(Cc2cc(=O)[nH]c3ccccc23)C(=O)CCl)c1`, less than 260 nM; as for `Brc1ccc(-n2cc(-c3ccccc3)c3c(NN4CCOCC4)ncnc32)cc1`, less than 260 nM.
As for `COc1ccc(C)cc1NS(=O)(=O)c1ccc(-c2cnc(C3CC3)o2)cc1`, the figure is 376 nM; as for `COc1cccc(N2CCN(C(=O)c3ccc(CS(=O)c4ccccc4Cl)o3)CC2)c1` (stereo unspecified), less than 260 nM; as for `O=C(Nc1ccc(N2CCN(C(=O)c3ccccc3)CC2)cc1)c1ccc([N+](=O)[O-])o1`, less than 260 nM.
As for `O=C(Nc1ccccc1)NN(C(=O)CCl)c1ccccc1`, the AC50 was 12400 nM.
As for `CCCC1=Nc2cc(C(=O)NCCCOCC)ccc2Sc2ccccc21`, the figure is less than 260 nM; as for `CCCC(=O)NC1=C(Cl)C(=O)c2ccccc2C1=O`, less than 260 nM; as for `O=c1cc(-c2ccccc2)oc2ccc3ccccc3c12`, less than 260 nM.
The same measure for `FC(F)(F)c1nnc2c(Sc3ccccn3)nc3ccccc3n12`: 14200 nM.
As for `COCCn1c(C)cc(C2=NNC(=NC3CC3)SC2)c1C`, the figure is less than 260 nM.
In the case of `COc1cc(OC)c2c(-c3cccc(-c4ccc(OC)c(F)c4)c3)cc(=O)oc2c1`, the AC50 is 11400 nM.
The same measure for `Cc1ccc(-c2csc3ncnc(Sc4nnc(CN5CCCCCC5=O)o4)c23)cc1`: 10800 nM; for `Cc1ccc(NC(=O)Cn2ncc(Cl)c(Cl)c2=O)cc1S(=O)(=O)N1CCCCC1`: less than 260 nM.
The same measure for `Cn1nnnc1Sc1ncnc2scc(-c3cccc(S(C)(=O)=O)c3)c12`: 10200 nM; for `C(=Cc1cnc2ccccc2n1)c1ccc2c(c1)OCO2`: 12900 nM.
As for `COc1ccc(-n2nc3c(N4CCC(C(=O)NCc5cccc(C)c5)CC4)nnc(C)c3c2C)cc1`, the concentration at half-maximal activity (AC50) was less than 260 nM.
Regarding `O=C(NC12CC3CC(CC(C3)C1)C2)c1ccc([N+](=O)[O-])o1`, the AC50 is less than 260 nM.
The same measure for `Cc1ccc(NC(=O)CN(C)C(=O)Cn2ncc(Cl)c(Cl)c2=O)cc1`: less than 260 nM.
With `CC1CC(C)(O)CC(C(O)CC2CC(=O)NC(=O)C2)C1=O` (stereo unspecified), the half-maximal activity concentration (AC50) is less than 260 nM.
As for `CCOc1ccc(C(=O)C(CCC(CN(C)C)C(=O)c2ccc(OCC)cc2)CN(C)C)cc1` (stereo unspecified), the figure is less than 260 nM; as for `OCCCNc1nccc(-c2cc(Nc3cccc(Cl)c3)ncn2)n1`, less than 260 nM.
In the case of `C[C@@H]1CCCCO[C@H](CN(C)Cc2ccc(C(F)(F)F)cc2)[C@H](C)CN([C@H](C)CO)C(=O)c2cc(NS(=O)(=O)c3cccs3)ccc2O1`, the AC50 is less than 260 nM.
The same measure for `CCOC(=O)Nc1ccc2c(c1)N(C(=O)CCN(CC)CC)c1ccccc1S2=O` (stereo unspecified): less than 260 nM; for `C[C@@H]1O[C@@H](O[C@@H]2C=C3CC[C@@H]4C(CC[C@]5(C)[C@@H](c6ccc(=O)oc6)CC[C@]45O)[C@@]3(C)CC2)[C@H](O)[C@H](O)[C@H]1O` (stereo partly specified): less than 260 nM.
As for `COc1cccc(S(=O)(=O)NCC(=O)Nc2ccc(C(C)(C)C)cc2)c1`, the figure is less than 260 nM; as for `N#Cc1ccc(-c2ccc(C3[C@@H]4CN(C(=O)C5CC5)C[C@H]3N4)cc2)cc1` (stereo partly specified), less than 260 nM.
Take `Cc1ccc(C(=O)N/C(=C\c2ccc(-c3ccc(Br)cc3)o2)C(=O)NCCCN(C)C)cc1`: the half-maximal activity concentration (AC50) is 12500 nM.
For `C[C@@H]1CN([C@H](C)CO)C(=O)c2cc(NS(=O)(=O)c3ccc(Cl)cc3)ccc2O[C@@H](C)CCCCO[C@@H]1CN(C)Cc1ccccc1`, the AC50 was less than 260 nM.
The same measure for `Oc1cccc2cc(Nc3ccccc3)cnc12`: less than 260 nM; for `C[C@]12CCC3C(CCC4=CC(O)CC[C@@]43/C=N/O)C1(O)CCC2C1=CC(=O)OC1` (stereo partly specified): less than 260 nM; for `COc1ccc(F)cc1-c1cc(NC=O)c2ncc(-c3cc(OC)c(OC)c(OC)c3)n2c1`: less than 260 nM.
In the case of `CCC(c1nnnn1Cc1ccccc1)N1CCC(n2c(=O)[nH]c3ccccc32)CC1` (stereo unspecified), the AC50 was less than 260 nM.
The same measure for `CCOc1ccc(NC(=O)Nc2cc(OCC(F)(F)F)cc(OCC(F)(F)F)c2)cc1`: 9370 nM.
Take `CC(C)c1cc(C(=O)OCC(=O)N2CCN(C(=O)c3ccco3)CC2)c(O)c(C(C)C)c1`: the AC50 was less than 260 nM.
